{
  "source": "paper PMC9150124",
  "about": "“Design of a Potent, Selective, and Brain-Penetrant Inhibitor of Wnt-Deactivating Enzyme Notum by Optimization of a Crystallographic Fragment Hit” (Journal of Medicinal Chemistry, 2022)",
  "assay_in_all_cases": "SelectScreen kinase profiling, SSBK ZLyte SP Technology",
  "assay_type_in_all_cases": "biochemical",
  "key": {"[1]": {"biological_target": "kinase named in conditions (Homo sapiens, UniProt O43293)", "details": "DAPK3 (ZIPK), 10 μM", "method": "(§1) Kinase selectivity screening was performed by Thermo Fisher Scientific (Paisley, U.K.) in their SelectScreen Biochemical Kinase Profiling Service. Assay information and data are presented in the Supporting Information.\n(§2) Kinase selectivity screening was performed by ThermoFisher Scientific (Paisley, U.K.) in their SelectScreenTM\n(§3) Biochemical Kinase Profiling service ."}, "[2]": {"biological_target": "kinase named in conditions (Homo sapiens, UniProt O60674, V617F)", "details": "JAK2 JH1 JH2 V617F, 10 μM", "method": "as §1, §2, §3"}, "[3]": {"biological_target": "kinase named in conditions (Homo sapiens, UniProt O75914)", "sequence (O75914 whole entry)": "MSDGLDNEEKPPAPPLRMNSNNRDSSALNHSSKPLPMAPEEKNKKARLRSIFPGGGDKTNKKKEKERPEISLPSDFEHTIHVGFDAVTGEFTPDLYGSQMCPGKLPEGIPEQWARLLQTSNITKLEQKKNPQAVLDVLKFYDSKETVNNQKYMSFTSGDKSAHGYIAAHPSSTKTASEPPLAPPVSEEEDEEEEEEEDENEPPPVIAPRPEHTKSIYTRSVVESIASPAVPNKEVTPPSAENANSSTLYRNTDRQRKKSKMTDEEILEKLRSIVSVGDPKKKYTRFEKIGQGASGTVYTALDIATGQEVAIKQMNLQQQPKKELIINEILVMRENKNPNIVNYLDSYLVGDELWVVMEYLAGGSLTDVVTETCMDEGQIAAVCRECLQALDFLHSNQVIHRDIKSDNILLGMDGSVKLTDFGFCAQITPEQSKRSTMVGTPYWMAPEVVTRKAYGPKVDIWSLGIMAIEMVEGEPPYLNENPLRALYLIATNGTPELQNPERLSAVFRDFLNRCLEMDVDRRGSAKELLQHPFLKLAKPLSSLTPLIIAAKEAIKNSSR", "details": "PAK3, 10 μM", "method": "as §1, §2, §3"}, "[4]": {"biological_target": "kinase named in conditions (Homo sapiens, UniProt O94806)", "sequence (O94806 whole entry)": "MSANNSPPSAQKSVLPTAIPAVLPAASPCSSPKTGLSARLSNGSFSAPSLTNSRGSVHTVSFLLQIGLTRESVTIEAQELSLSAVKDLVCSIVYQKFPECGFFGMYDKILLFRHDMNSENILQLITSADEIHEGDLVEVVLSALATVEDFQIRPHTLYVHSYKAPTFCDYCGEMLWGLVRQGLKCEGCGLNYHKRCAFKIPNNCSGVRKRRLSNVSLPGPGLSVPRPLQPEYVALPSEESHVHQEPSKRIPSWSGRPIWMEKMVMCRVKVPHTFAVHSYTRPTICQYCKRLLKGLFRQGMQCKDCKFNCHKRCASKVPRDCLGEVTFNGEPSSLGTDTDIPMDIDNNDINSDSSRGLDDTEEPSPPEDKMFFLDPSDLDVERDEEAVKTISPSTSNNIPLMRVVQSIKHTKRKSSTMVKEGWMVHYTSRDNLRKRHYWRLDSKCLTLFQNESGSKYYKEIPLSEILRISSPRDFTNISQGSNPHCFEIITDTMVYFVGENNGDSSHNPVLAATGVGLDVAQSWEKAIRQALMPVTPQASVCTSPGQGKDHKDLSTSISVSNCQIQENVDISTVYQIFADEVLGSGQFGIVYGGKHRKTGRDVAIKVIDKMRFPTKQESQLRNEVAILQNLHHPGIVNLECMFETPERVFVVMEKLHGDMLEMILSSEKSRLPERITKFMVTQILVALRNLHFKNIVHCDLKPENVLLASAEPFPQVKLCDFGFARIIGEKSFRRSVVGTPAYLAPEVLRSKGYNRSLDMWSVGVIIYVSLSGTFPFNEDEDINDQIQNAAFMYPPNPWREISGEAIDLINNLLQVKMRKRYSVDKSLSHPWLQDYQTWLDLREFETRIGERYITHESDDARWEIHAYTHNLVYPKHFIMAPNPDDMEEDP", "details": "PRKCN (PKD3), 10 μM", "method": "as §1, §2, §3"}, "[5]": {"biological_target": "kinase named in conditions (Homo sapiens, UniProt P00519, Y253F)", "details": "ABL1 Y253F, 10 μM", "method": "as §1, §2, §3"}, "[6]": {"biological_target": "kinase named in conditions (Homo sapiens, UniProt P00533, G719S)", "details": "EGFR (ErbB1) G719S, 10 μM", "method": "as §1, §2, §3"}, "[7]": {"biological_target": "kinase named in conditions (Homo sapiens, UniProt P04049, Y340D/Y341D)", "details": "RAF1 (cRAF) Y340D Y341D, 10 μM", "method": "as §1, §2, §3"}, "[8]": {"biological_target": "kinase named in conditions (Homo sapiens, UniProt P04626)", "details": "ERBB2 (HER2), 10 μM", "method": "as §1, §2, §3"}, "[9]": {"biological_target": "kinase named in conditions (Homo sapiens, UniProt P04629)", "sequence (P04629 33-796)": "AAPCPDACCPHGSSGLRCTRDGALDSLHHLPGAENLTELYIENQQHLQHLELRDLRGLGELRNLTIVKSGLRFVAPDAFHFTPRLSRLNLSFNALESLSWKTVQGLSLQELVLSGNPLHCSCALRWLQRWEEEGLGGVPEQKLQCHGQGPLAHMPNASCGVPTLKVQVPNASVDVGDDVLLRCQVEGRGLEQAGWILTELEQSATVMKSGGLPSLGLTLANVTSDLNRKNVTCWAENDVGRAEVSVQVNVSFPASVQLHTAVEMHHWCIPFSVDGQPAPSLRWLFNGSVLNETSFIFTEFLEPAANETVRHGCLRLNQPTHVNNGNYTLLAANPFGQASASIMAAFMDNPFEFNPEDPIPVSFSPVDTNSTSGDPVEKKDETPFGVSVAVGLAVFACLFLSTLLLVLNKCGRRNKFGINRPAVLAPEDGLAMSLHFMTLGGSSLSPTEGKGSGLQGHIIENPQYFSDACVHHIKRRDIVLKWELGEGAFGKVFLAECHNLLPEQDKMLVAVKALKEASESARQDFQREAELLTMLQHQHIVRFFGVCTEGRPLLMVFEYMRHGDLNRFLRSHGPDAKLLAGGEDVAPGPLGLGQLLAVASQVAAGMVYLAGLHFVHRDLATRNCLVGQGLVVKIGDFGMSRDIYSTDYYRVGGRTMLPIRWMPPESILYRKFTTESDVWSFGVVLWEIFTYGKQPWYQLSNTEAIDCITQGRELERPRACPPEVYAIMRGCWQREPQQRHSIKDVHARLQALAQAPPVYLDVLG", "details": "NTRK1 (TRKA), 10 μM", "method": "as §1, §2, §3"}, "[10]": {"biological_target": "kinase named in conditions (Homo sapiens, UniProt P05129)", "details": "PRKCG (PKC gamma), 10 μM", "method": "as §1, §2, §3"}, "[11]": {"biological_target": "kinase named in conditions (Homo sapiens, UniProt P07949, A883F)", "details": "RET A883F, 10 μM", "method": "as §1, §2, §3"}, "[12]": {"biological_target": "kinase named in conditions (Homo sapiens, UniProt P08581, Y1235D)", "details": "MET (cMet) Y1235D, 10 μM", "method": "as §1, §2, §3"}, "[13]": {"biological_target": "kinase named in conditions (Homo sapiens, UniProt P35968)", "details": "KDR (VEGFR2), 10 μM", "method": "as §1, §2, §3"}, "[14]": {"biological_target": "kinase named in conditions (Homo sapiens, UniProt P48729)", "details": "CSNK1A1 (CK1 alpha 1), 10 μM", "method": "as §1, §2, §3"}, "[15]": {"biological_target": "kinase named in conditions (Homo sapiens, UniProt P48730)", "details": "CSNK1D (CK1 delta), 10 μM", "method": "as §1, §2, §3"}, "[16]": {"biological_target": "kinase named in conditions (Homo sapiens, UniProt P49761)", "details": "CLK3, 10 μM", "method": "as §1, §2, §3"}, "[17]": {"biological_target": "kinase named in conditions (Homo sapiens, UniProt P53778)", "sequence (P53778 whole entry)": "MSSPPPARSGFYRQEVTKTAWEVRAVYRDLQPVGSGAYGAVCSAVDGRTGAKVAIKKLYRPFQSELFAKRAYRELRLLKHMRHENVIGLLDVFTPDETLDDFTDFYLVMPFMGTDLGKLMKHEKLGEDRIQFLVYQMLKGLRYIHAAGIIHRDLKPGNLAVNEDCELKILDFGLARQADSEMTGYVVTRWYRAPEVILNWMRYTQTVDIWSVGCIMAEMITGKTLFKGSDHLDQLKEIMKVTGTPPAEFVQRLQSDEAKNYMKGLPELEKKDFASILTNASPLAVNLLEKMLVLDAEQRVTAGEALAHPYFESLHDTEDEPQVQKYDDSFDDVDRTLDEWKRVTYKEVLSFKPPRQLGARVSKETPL", "details": "MAPK12 (p38 gamma), 10 μM", "method": "as §1, §2, §3"}, "[18]": {"biological_target": "kinase named in conditions (Homo sapiens, UniProt Q07002)", "details": "CDK18/cyclin Y, 10 μM", "method": "as §1, §2, §3"}, "[19]": {"biological_target": "kinase named in conditions (Homo sapiens, UniProt Q13131)", "sequence (Q13131 whole entry)": "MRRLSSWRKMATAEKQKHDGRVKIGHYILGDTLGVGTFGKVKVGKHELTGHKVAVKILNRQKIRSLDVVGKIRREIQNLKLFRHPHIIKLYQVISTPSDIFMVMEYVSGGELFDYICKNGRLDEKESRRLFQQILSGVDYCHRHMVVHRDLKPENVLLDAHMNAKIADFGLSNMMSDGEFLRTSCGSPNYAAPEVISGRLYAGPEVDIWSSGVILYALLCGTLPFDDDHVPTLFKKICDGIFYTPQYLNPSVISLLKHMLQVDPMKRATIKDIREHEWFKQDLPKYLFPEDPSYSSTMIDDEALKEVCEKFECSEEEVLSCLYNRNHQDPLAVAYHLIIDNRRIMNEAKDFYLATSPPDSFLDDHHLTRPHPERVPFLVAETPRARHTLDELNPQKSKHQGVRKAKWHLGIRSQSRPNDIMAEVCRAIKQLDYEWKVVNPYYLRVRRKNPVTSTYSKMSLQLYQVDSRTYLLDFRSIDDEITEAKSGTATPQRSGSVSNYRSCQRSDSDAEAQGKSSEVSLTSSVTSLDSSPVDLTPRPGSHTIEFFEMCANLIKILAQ", "method": "as §1, §2, §3"}, "[20]": {"biological_target": "kinase named in conditions (Homo sapiens, UniProt Q13164)", "details": "MAPK7 (ERK5), 10 μM", "method": "as §1, §2, §3"}, "[21]": {"biological_target": "kinase named in conditions (Homo sapiens, UniProt Q13464)", "details": "ROCK1, 10 μM", "method": "as §1, §2, §3"}, "[22]": {"biological_target": "kinase named in conditions (Homo sapiens, UniProt Q13557)", "details": "CAMK2D (CaMKII delta), 10 μM", "method": "as §1, §2, §3"}, "[23]": {"biological_target": "kinase named in conditions (Homo sapiens, UniProt Q13976)", "sequence (Q13976 whole entry)": "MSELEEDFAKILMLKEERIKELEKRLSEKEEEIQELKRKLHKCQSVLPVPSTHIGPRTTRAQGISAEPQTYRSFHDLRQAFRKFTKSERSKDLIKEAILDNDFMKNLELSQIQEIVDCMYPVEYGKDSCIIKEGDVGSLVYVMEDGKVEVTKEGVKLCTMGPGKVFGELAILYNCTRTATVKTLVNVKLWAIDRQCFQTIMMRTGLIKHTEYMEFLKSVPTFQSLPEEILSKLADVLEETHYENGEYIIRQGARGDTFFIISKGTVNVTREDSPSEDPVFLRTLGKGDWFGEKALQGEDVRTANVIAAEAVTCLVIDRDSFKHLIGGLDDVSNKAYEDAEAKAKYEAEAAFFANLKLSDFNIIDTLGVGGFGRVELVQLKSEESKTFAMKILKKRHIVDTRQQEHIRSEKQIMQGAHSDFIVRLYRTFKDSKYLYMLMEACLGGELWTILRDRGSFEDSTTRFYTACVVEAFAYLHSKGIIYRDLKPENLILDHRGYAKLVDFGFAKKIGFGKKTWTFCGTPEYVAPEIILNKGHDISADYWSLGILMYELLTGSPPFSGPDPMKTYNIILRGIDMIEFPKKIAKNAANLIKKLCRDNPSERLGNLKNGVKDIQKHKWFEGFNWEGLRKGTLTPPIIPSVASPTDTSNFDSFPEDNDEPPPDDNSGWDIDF", "details": "PRKG1, 10 μM", "method": "as §1, §2, §3"}, "[24]": {"biological_target": "kinase named in conditions (Homo sapiens, UniProt Q14164)", "details": "IKBKE (IKK epsilon), 10 μM", "method": "as §1, §2, §3"}, "[25]": {"biological_target": "kinase named in conditions (Homo sapiens, UniProt Q14289)", "details": "PTK2B (FAK2), 10 μM", "method": "as §1, §2, §3"}, "[26]": {"biological_target": "kinase named in conditions (Homo sapiens, UniProt Q15349)", "details": "RPS6KA2 (RSK3), 10 μM", "method": "as §1, §2, §3"}, "[27]": {"biological_target": "kinase named in conditions (Homo sapiens, UniProt Q8N4C8)", "details": "MINK1, 10 μM", "method": "as §1, §2, §3"}, "[28]": {"biological_target": "kinase named in conditions (Homo sapiens, UniProt Q8N752)", "sequence (Q8N752 whole entry)": "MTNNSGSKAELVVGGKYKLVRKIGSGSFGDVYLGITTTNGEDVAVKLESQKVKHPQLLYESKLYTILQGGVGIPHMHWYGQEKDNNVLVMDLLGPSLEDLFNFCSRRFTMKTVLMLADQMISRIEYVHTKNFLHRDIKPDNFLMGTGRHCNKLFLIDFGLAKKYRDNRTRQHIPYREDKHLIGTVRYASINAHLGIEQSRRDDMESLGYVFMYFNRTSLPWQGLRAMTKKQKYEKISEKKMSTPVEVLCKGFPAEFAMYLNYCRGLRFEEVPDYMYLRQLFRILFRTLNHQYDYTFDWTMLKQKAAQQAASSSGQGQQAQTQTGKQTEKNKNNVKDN", "details": "CSNK1A1L, 10 μM", "method": "as §1, §2, §3"}, "[29]": {"biological_target": "kinase named in conditions (Homo sapiens, UniProt Q96PF2)", "details": "STK22B (TSSK2), 10 μM", "method": "as §1, §2, §3"}, "[30]": {"biological_target": "kinase named in conditions (Homo sapiens, UniProt Q96PY6)", "details": "NEK1, 10 μM", "method": "as §1, §2, §3"}, "[31]": {"biological_target": "kinase named in conditions (Homo sapiens, UniProt Q96SB4)", "sequence (Q96SB4 whole entry)": "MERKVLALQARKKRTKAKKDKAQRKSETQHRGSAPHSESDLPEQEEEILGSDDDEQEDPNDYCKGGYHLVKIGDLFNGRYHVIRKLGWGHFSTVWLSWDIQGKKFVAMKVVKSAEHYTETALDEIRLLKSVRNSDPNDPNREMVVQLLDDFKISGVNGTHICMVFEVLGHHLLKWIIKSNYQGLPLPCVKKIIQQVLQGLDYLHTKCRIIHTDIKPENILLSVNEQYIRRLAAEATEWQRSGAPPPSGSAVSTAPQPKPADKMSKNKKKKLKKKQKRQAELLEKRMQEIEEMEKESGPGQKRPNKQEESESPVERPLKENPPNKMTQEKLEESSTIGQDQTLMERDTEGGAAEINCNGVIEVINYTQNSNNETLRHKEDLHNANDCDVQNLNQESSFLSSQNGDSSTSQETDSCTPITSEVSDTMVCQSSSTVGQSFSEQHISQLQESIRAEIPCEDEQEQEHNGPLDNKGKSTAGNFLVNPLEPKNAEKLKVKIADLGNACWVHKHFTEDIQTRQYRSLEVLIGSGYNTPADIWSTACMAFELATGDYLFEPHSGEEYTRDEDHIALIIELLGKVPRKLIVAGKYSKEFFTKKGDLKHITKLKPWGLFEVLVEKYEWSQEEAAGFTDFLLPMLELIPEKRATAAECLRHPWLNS", "details": "SRPK1, 10 μM", "method": "as §1, §2, §3"}, "[32]": {"biological_target": "kinase named in conditions (Homo sapiens, UniProt Q9HBY8)", "details": "SGK2, 10 μM", "method": "as §1, §2, §3"}, "[33]": {"biological_target": "kinase named in conditions (Homo sapiens, UniProt Q9UHD2)", "details": "TBK1, 10 μM", "method": "as §1, §2, §3"}},
  "data": [
    {"smiles": "FC(F)(F)c1c(Cl)ccc(-n2ccnn2)c1Cl", "note": "[8l, 1-(2,4-Dichloro-3-(trifluoromethyl)phenyl)-1H-1,2,3-triazole]", "values": [
      {"measurement": "inhibition at 10 µM", "setting": "[1]", "value": 8, "unit": "%"},
      {"measurement": "inhibition at 10 µM", "setting": "[2]", "value": -4, "unit": "%"},
      {"measurement": "inhibition at 10 µM", "setting": "[3]", "value": 8, "unit": "%"},
      {"measurement": "inhibition at 10 µM", "setting": "[4]", "value": 6, "unit": "%"},
      {"measurement": "inhibition at 10 µM", "setting": "[5]", "value": 13, "unit": "%"},
      {"measurement": "inhibition at 10 µM", "setting": "[6]", "value": -1, "unit": "%"},
      {"measurement": "inhibition at 10 µM", "setting": "[7]", "value": 10, "unit": "%"},
      {"measurement": "inhibition at 10 µM", "setting": "[8]", "value": 0, "unit": "%"},
      {"measurement": "inhibition at 10 µM", "setting": "[9]", "value": 3, "unit": "%"},
      {"measurement": "inhibition at 10 µM", "setting": "[10]", "value": 12, "unit": "%"},
      {"measurement": "inhibition at 10 µM", "setting": "[11]", "value": 10, "unit": "%"},
      {"measurement": "inhibition at 10 µM", "setting": "[12]", "value": 0, "unit": "%"},
      {"measurement": "inhibition at 10 µM", "setting": "[13]", "value": 14, "unit": "%"},
      {"measurement": "inhibition at 10 µM", "setting": "[14]", "value": 2, "unit": "%"},
      {"measurement": "inhibition at 10 µM", "setting": "[15]", "value": 3, "unit": "%"},
      {"measurement": "inhibition at 10 µM", "setting": "[16]", "value": 2, "unit": "%"},
      {"measurement": "inhibition at 10 µM", "setting": "[17]", "value": 2, "unit": "%"},
      {"measurement": "inhibition at 10 µM", "setting": "[18]", "value": 4, "unit": "%"},
      {"measurement": "inhibition at 10 µM", "setting": "[19]; AMPK (A1/B2/G2), 10 μM", "value": 6, "unit": "%"},
      {"measurement": "inhibition at 10 µM", "setting": "[19]; AMPK (A1/B2/G3), 10 μM", "value": 6, "unit": "%"},
      {"measurement": "inhibition at 10 µM", "setting": "[19]; AMPK A1/B1/G1, 10 μM", "value": 14, "unit": "%"},
      {"measurement": "inhibition at 10 µM", "setting": "[20]", "value": -3, "unit": "%"},
      {"measurement": "inhibition at 10 µM", "setting": "[21]", "value": 8, "unit": "%"},
      {"measurement": "inhibition at 10 µM", "setting": "[22]", "value": 7, "unit": "%"},
      {"measurement": "inhibition at 10 µM", "setting": "[23]", "value": 15, "unit": "%"},
      {"measurement": "inhibition at 10 µM", "setting": "[24]", "value": 11, "unit": "%"},
      {"measurement": "inhibition at 10 µM", "setting": "[25]", "value": 7, "unit": "%"},
      {"measurement": "inhibition at 10 µM", "setting": "[26]", "value": 5, "unit": "%"},
      {"measurement": "inhibition at 10 µM", "setting": "[27]", "value": 14, "unit": "%"},
      {"measurement": "inhibition at 10 µM", "setting": "[28]", "value": -2, "unit": "%"},
      {"measurement": "inhibition at 10 µM", "setting": "[29]", "value": -2, "unit": "%"},
      {"measurement": "inhibition at 10 µM", "setting": "[30]", "value": 1, "unit": "%"},
      {"measurement": "inhibition at 10 µM", "setting": "[31]", "value": 2, "unit": "%"},
      {"measurement": "inhibition at 10 µM", "setting": "[32]", "value": 4, "unit": "%"},
      {"measurement": "inhibition at 10 µM", "setting": "[33]", "value": 0, "unit": "%"}
    ]}
  ]
}
